Experimental data reported in US9271993B2, “Treatment of bacterial infectious diseases” (priority 2010, dated 2016).
Values after ≈ are worked out from the molar mass of the structure shown. Read-outs that look alike come from different tables or passages of the source.

Assays:
M. massiliense = test: MIC against non-tuberculous rapidly-growing mycobacteria, microdilution; assay type: cell-based; conditions: Mycobacteroides abscessus, read-out: minimal inhibitory concentration (MIC)
Description: (§1) Activity of apramycin was assessed in standard microdilution assays and is expressed as minimal inhibitory concentration (MIC) in μg/ml.

M. bolletii = test: as above; assay type: cell-based; conditions: Mycobacteroides abscessus, read-out: minimal inhibitory concentration (MIC)
Description: as §1

M. abscessus = test: as above; assay type: cell-based; conditions: Mycobacteroides abscessus; strain 500039/08 M. abscessus; read-out: minimal inhibitory concentration (MIC)
Description: as §1

E. coli = test: MIC against gram-negative bacteria; assay type: cell-based; conditions: Escherichia coli, read-out: MIC
Description: Agents Chemother. 2003, 47:1496-1502.

[1] = tested on: clinical methicillin resistant Staphylococcus aureus (MRSA) isolates; test: MIC against clinical MRSA isolates, LB microdilution assay
Description: Activity was assessed by determination of minimal inhibitory concentrations (MIC), as described in Pfister et al., Antimicrob. […] Cultures from single colonies were grown in LB medium and used for MIC tests in a microtiter plate format. Starting cultures contained 200 μl of bacterial cells at an optical density of 0.025 at 600 nm, and the respective drug was added in twofold series of dilution.

M. kansasii = test: Drug susceptibility of non-tuberculous slow-growing mycobacteria, MGIT960; assay type: cell-based
M. avium-intracellulare = test: as above; assay type: cell-based
[2] = strain 177217/10 M. massiliense
[3] = strain 186139/07 M. massiliense
[4] = strain 500044/09 M. massiliense
[5] = Staphylococcus aureus, MRSA, MRSA AG038, strain 70-26S Gm^S
[6] = Staphylococcus aureus, MRSA, MRSA AG040, strain 87-26S Gm^S
[7] = Staphylococcus aureus, MRSA, MRSA AG041, strain 98-25S Gm^S
[8] = Staphylococcus aureus, MRSA, MRSA AG042, strain 101-06R Gm^R
[9] = Staphylococcus aureus, MRSA, MRSA AG043, strain 01-08R Gm^R
[10] = Staphylococcus aureus, MRSA, MRSA AG044, strain 07-12R Gm^R
[11] = Staphylococcus aureus, MRSA, MRSA AG045, strain 08-12R Gm^R
[12] = Staphylococcus aureus, MRSA, MRSA AG053, strain 56-06R Gm^R

## NC[C@H]1O[C@H](O[C@H]2[C@H](O)[C@@H](O[C@H]3O[C@H](CO)[C@@H](O)[C@H](N)[C@H]3O)[C@H](N)C[C@@H]2N)[C@H](O)[C@@H](O)[C@@H]1O [Kanamicin A]
M. massiliense; [2]
  MIC: 32 µg/mL (≈ 66 µM)
M. massiliense; [3]
  MIC: 32 µg/mL (≈ 66 µM)
M. massiliense; [4]
  MIC: 16 µg/mL (≈ 33 µM)
M. bolletii; strain 179639/10 M. bolletii
  MIC: 64 µg/mL (≈ 132 µM)
M. bolletii; strain 181739/08 M. bolletii
  MIC: 64 µg/mL (≈ 132 µM)
M. bolletii; strain 183177/08 M. bolletii
  MIC: 16 µg/mL (≈ 33 µM)
M. abscessus
  MIC: 4 µg/mL (≈ 8.26 µM)
E. coli; E. coli AG01, clin. isol. (Gm^S)
  MIC: 16 µg/mL (≈ 33 µM)
E. coli; E. coli AG02, clin. isol (Gm^S)
  MIC: 4 to 8 µg/mL (≈ 8.26 to 16.5 µM)
E. coli; E. coli AG03, clin. isol (Gm^R)
  MIC: 16 to 32 µg/mL (≈ 33 to 66 µM)
E. coli; E. coli AG06, BM13
  MIC: 1 to 2 µg/mL (≈ 2.06 to 4.13 µM)
E. coli; E. coli AG07, BM13/pIP135, resistance mechanism AAC(3)
  MIC: 8 µg/mL (≈ 16.5 µM)
E. coli; E. coli AG08, BM13/pIP055, resistance mechanism ANT(2″)
  MIC: 16 to 128 µg/mL (≈ 33 to 264 µM)
E. coli; E. coli AG09, AAC(6′)-1B, resistance mechanism AAC(6′)
  MIC: 256 to 512 µg/mL (≈ 528 to 1060 µM)
E. coli; E. coli AG36, HB101/pAT197, resistance mechanism ANT(4′)
  MIC: 16 to 32 µg/mL (≈ 33 to 66 µM)
E. coli; E. coli AG37, HB101/pAG21-1, resistance mechanism APH(3′)
  MIC: > 256 µg/mL
[1]; MRSA AG047, strain 18-06R Gm^R
  MIC: >256 µg/mL
[1]; MRSA AG049, strain 23-12R Gm^R
  MIC: >256 µg/mL
[1]; MRSA AG050, strain 31-06R Gm^R
  MIC: >256 µg/mL
[1]; MRSA AG051, strain 36-06R Gm^R
  MIC: >256 µg/mL
[1]; MRSA AG052, strain 53-14I Gm^R
  MIC: >256 µg/mL
[1]; Staphylococcus aureus, MRSA
  MIC: > 256 µg/mL
[1]; [5]
  MIC: 4 µg/mL (≈ 8.26 µM)
[1]; [6]
  MIC: 128 to 256 µg/mL (≈ 264 to 528 µM)
[1]; [7]
  MIC: 2 to 4 µg/mL (≈ 4.13 to 8.26 µM)
[1]; [8]
  MIC: 256 µg/mL (≈ 528 µM)
[1]; [9]
  MIC: 128 to 256 µg/mL (≈ 264 to 528 µM)
[1]; [10]
  MIC: 64 µg/mL (≈ 132 µM)
[1]; [11]
  MIC: 64 µg/mL (≈ 132 µM)
[1]; Staphylococcus aureus, MRSA, MRSA AG048, strain 20-06R Gm^R
  MIC: > 512 µg/mL
[1]; [12]
  MIC: 256 µg/mL (≈ 528 µM)

## NCC[C@H](O)C(=O)N[C@@H]1C[C@H](N)[C@@H](O[C@H]2O[C@H](CN)[C@@H](O)[C@H](O)[C@H]2O)[C@H](O)[C@H]1O[C@H]1O[C@H](CO)[C@@H](O)[C@H](N)[C@H]1O [Amikacin]
M. massiliense; [2]
  MIC: 8 µg/mL (≈ 13.7 µM)
M. massiliense; [3]
  MIC: 4 µg/mL (≈ 6.83 µM)
M. massiliense; [4]
  MIC: 1 µg/mL (≈ 1.71 µM)
M. bolletii; strain 179639/10 M. bolletii
  MIC: 8 µg/mL (≈ 13.7 µM)
M. bolletii; strain 181739/08 M. bolletii
  MIC: 4 µg/mL (≈ 6.83 µM)
M. bolletii; strain 183177/08 M. bolletii
  MIC: 8 µg/mL (≈ 13.7 µM)
M. abscessus
  MIC: 1 µg/mL (≈ 1.71 µM)
M. kansasii; strain 177227/06 M. kansasii, 1 μg/ml
  Activity (resistant/susceptible): R
M. kansasii; strain 177227/06 M. kansasii, 4 μg/ml
  Activity (resistant/susceptible): S
M. kansasii; strain 177227/06 M. kansasii, 10 μg/ml
  Activity (resistant/susceptible): S
M. kansasii; strain 180235/06 M. kansasii, 1 μg/ml
  Activity (resistant/susceptible): R
M. kansasii; strain 180235/06 M. kansasii, 4 μg/ml
  Activity (resistant/susceptible): S
M. kansasii; strain 180235/06 M. kansasii, 10 μg/ml
  Activity (resistant/susceptible): S
M. avium-intracellulare; strain 182034/06 M. avium-intracellulare, 1 μg/ml
  Activity (resistant/susceptible): R
M. avium-intracellulare; strain 182034/06 M. avium-intracellulare, 4 μg/ml
  Activity (resistant/susceptible): S
M. avium-intracellulare; strain 182034/06 M. avium-intracellulare, 10 μg/ml
  Activity (resistant/susceptible): S
M. avium-intracellulare; strain 182124/07 M. avium-intracellulare, 1 μg/ml
  Activity (resistant/susceptible): R
M. avium-intracellulare; strain 182124/07 M. avium-intracellulare, 4 μg/ml
  Activity (resistant/susceptible): S
M. avium-intracellulare; strain 182124/07 M. avium-intracellulare, 10 μg/ml
  Activity (resistant/susceptible): S
M. avium-intracellulare; strain 182550/07 M. avium-intracellulare, 1 μg/ml
  Activity (resistant/susceptible): R
M. avium-intracellulare; strain 182550/07 M. avium-intracellulare, 4 μg/ml
  Activity (resistant/susceptible): S
M. avium-intracellulare; strain 182550/07 M. avium-intracellulare, 10 μg/ml
  Activity (resistant/susceptible): S
[1]; MRSA AG048, strain 20-06R Gm^R
  MIC: 256 µg/mL (≈ 437 µM)
[1]; Staphylococcus aureus, MRSA
  MIC: 256 µg/mL (≈ 437 µM)
[1]; [5]
  MIC: 4 µg/mL (≈ 6.83 µM)
[1]; [6]
  MIC: 16 to 32 µg/mL (≈ 27.3 to 54.6 µM)
[1]; [7]
  MIC: 4 to 8 µg/mL (≈ 6.83 to 13.7 µM)
[1]; [8]
  MIC: 16 µg/mL (≈ 27.3 µM)
[1]; [9]
  MIC: 8 to 16 µg/mL (≈ 13.7 to 27.3 µM)
[1]; [10]
  MIC: 4 µg/mL (≈ 6.83 µM)
[1]; [11]
  MIC: 4 µg/mL (≈ 6.83 µM)
[1]; Staphylococcus aureus, MRSA, MRSA AG046, strain 12-06R Gm^R
  MIC: 32 µg/mL (≈ 54.6 µM)
[1]; Staphylococcus aureus, MRSA, MRSA AG049, strain 23-12R Gm^R
  MIC: 8 to 16 µg/mL (≈ 13.7 to 27.3 µM)
[1]; Staphylococcus aureus, MRSA, MRSA AG050, strain 31-06R Gm^R
  MIC: 16 µg/mL (≈ 27.3 µM)
[1]; Staphylococcus aureus, MRSA, MRSA AG051, strain 36-06R Gm^R
  MIC: 8 to 16 µg/mL (≈ 13.7 to 27.3 µM)
[1]; Staphylococcus aureus, MRSA, MRSA AG052, strain 53-14I Gm^R
  MIC: 16 µg/mL (≈ 27.3 µM)
[1]; [12]
  MIC: 8 µg/mL (≈ 13.7 µM)
